Structures are written as SMILES. Like-named read-outs stand apart in the source and are kept apart here.

As usually defined, the IC50 is the concentration that inhibits the measured activity by half. A word on the inhibition: it is the drop in the measured response relative to a control, in per cent.

For this test, the system named is HT29 cells. The test can be described thus: Combined use of compound 257 with PLK1 inhibitor (CYC140, TAK-960) on HT29 cell viability, 168 h (Biological Example 9). The following applies: for Maximum inhibition rate / Minimum inhibition rate / IC50 / inhibition: HT29 cells; for IC50 / inhibition: Homo sapiens, HT-29, 168 h. The test is classed as cell-based. Here is the method:
HT29 cells were seeded on a 384-well plate at 3000 cells/well. After overnight adherence culture, DMSO or compound 257 serially diluted in a 1:5 ratio from 400 nM and a PLK1 inhibitor with a specified concentration were added. The cell viability was assessed 168 h after dosing by measuring the intracellular ATP content. The inhibition percentages of viable cells by the compounds were calculated by comparing with the DMSO group, and the IC50 values were also calculated.

Consider `COc1ccc(NC(=O)c2ccc(NS(=O)(=O)CCO)cc2N2CCC3(CC2)CC3)nc1N1CCC(F)(F)CC1` [Compound 257], for which, for the setting “CYC140 or TAK-960, in words”, the “inhibitory effect on HT-29 cells, combined use with the PLK1 inhibitor compared with monotherapy” value is “stronger inhibitory effect”. Moreover, the Maximum inhibition rate reads like this: (CYC140 (Plogosertib) 0 nM) 44.2%; (TAK-960 0 nM) 57.1%. Further, the Minimum inhibition rate (CYC140 (Plogosertib) 0 nM) is recorded as -7.1% and the Minimum inhibition rate (TAK-960 0 nM) is reported as 1.5%. The IC50 is 0.0157 µM (CYC140 (Plogosertib) 0 nM); 0.0104 µM (CYC140 (Plogosertib) 1.6 nM); 0.0031 µM (CYC140 (Plogosertib) 8 nM); 0.014 µM (TAK-960 0 nM); 0.0131 µM (TAK-960 8 nM); 0.0024 µM (TAK-960 40 nM). The inhibition was 80.3% (CYC140 (Plogosertib) 1.6 nM, read-out: Maximum inhibition rate); -0.7% (CYC140 (Plogosertib) 1.6 nM, read-out: Minimum inhibition rate); 90.9% (CYC140 (Plogosertib) 8 nM, read-out: Maximum inhibition rate); 0.4% (CYC140 (Plogosertib) 8 nM, read-out: Minimum inhibition rate); 86.1% (TAK-960 8 nM, read-out: Maximum inhibition rate); 7.5% (TAK-960 8 nM, read-out: Minimum inhibition rate). Also, the inhibition is, setting by setting: (TAK-960 40 nM, read-out: Maximum inhibition rate) 93.6%; (TAK-960 40 nM, read-out: Minimum inhibition rate) -4%.
